Results published in patent US5939403A, “Keratan sulfate oligosaccharide fraction and pharmaceutical containing the same” (Seikagaku Corporation, priority 1994, dated 1999).
Counter-ions that a name gives are not always drawn.

Experiments:
[1] = tested on: allergic conjunctivitis; test: TDI-induced allergic conjunctivitis model, eye dropping; format: in vivo, female Hartley guinea pigs
Experimental: A variety of the keratan sulfate oligosaccharide was dropped in the eyes of the guinea pigs subjected to the induction of allergic conjunctivitis to examine the effect thereof.
Toluene diisocyanate (hereinafter referred to as TDI) was diluted with ethyl acetate to a concentration of 10%. To the bilateral vestibule of noses of 10 female Hartley guinea pigs of from about 900 to 1,000 g weight, the 10% TDI (10 μl/animal) obtained above was applied once a day for five days to prepare the TDI sensitization models. The PBS solution of the purified keratan sulfate tetrasaccharide (I) ([…]) which was prepared in Example 1 was dropped in the left eyes of the TDI sensitization models, while PBS was dropped in the right eyes as the control. The dose of dropping was one drop (48+4.6 μl (S.D.)) each from the eye dropper. After 10 minutes, 6.5 μl of 10% TDI was dropped to the both eyes to induce conjunctivitis. After five minutes standing, furthermore, the PBS solution of the keratan sulfate tetrasaccharide (I) ([…]) was dropped in the left eyes, and PBS was dropped in the right eyes. After 15 minutes, observation of the both eyes were carried out. The degree of conjunctivitis was evaluated regarding three items of hyperemia, edema and lacrimation into four grades such as point 0, +1, +2 and +3. In the figure, * represents that it has the significant difference with p<0.05 (wherein "p" means a level of significance by the .chi.^2 test).
The PBS solution of the purified keratan sulfate disaccharide (III), the keratan sulfate tetrasaccharide (I), and the keratan sulfate pentasaccharide (II) (6.0 mg/ml, respectively)which were prepared in Example 1 described above as the test substances were dropped, respectively, in the left eyes of the TDI sensitization models of 10 animals a group each which were prepared in the same manner as in (1) described above, and PBS was dropped in the right eyes as the control. The degree of conjunctivitis was evaluated in the same manner as in (1) described above. In the figure, * represents that it has the significant difference with p<0.05 (wherein "p" means a level of significance by the .chi.^2 test).
The PBS solution containing the purified keratan sulfate tetrasaccharide (I) which was prepared in Example 1 described above, at varieties of concentrations (6 mg/ml, 3 mg/ml, 1.5 mg/ml or 0.75 mg/ml) as the test substance, were dropped, respectively, in the left eyes of the TDI sensitization models of 10 animals a group each which were prepared in the same manner as in (1) described above, and PBS was dropped in the right eyes as the control. The degree of conjunctivitis was evaluated in the same manner as in (1) described above. In the figure, * represents that it has the significant differnce with p<0.05 (wherein "p" means a level of significance by the .chi.^2 test).

[2] = tested on: MRL-lpr/lpr mice; test: Repeated intramuscular administration for 56 days in MRL mice (lymph node weight); format: in vivo
Experimental: The effect of the keratan sulfate oligosaccharide was examined on MRL mice which are autoimmune disease model mice.
The PBS solution of the purified keratan sulfate disaccharide (III) which was prepared in Example 1 described above at a dose of 2.5 mg/kg, 5 mg/kg, or 10 mg/kg weight (hereinafter referred to as the 2.5 mg/kg administered group, the 5 mg/kg administered group, and the 10 mg/kg administered group, respectively), and PBS as the control (hereinafter sometimes referred to as the control group) was intramuscularly injected, respectively, to the femoral region of MRL-lpr/lpr mice seven times a week for eight weeks. After that, the mice were subjected to anatomization, and the weight of mesenteric lymph nodes and submandibular lymph nodes were determined to obtain the average weight, respectively. The results concerning mesenteric lymph nodes and submandibular lymph nodes are shown in FIG. 15 and FIG. 16 with the standard errors, respectively. In each group, seven mice were used.

[3] = tested on: submandibular lymph node; test: Observation of apoptic body in submandibular lymph node sections (HE staining); format: in vivo, MRL-lpr/lpr mice; conditions: any dose (1, 5, 25 mg/kg i.m.), four weeks
[4] = tested on: papain-induced arthritis; test: Papain-induced bilateral arthritis model, intra-articular administration (volume of synovial fluid); format: in vivo, Japanese white rabbits (female); conditions: for Volume of Synovial Fluid: 7 days, n = 8, p < 0.05, control 729, normal 437
Experimental: (§1) The anti-inflammatory effect of the keratan sulfate oligosaccharide with rabbits of the papain-induced arthritis model was examined using the volume of synovial fluid as an indication.
Into the articular cavity of both knee joint of Japanese white rabbits (female) of 3 kg weight, 150 μl of the saline solution of papain (1%) was injected to prepare the arthritis model. One day after injecting papain, 150 μl of the PBS solution of the purified keratan sulfate tetrasaccharide (I) (1% solution; 1.5 mg/joint) which was prepared in Example 1 was injected into the articular cavity of the left joint (hereinafter referred to as "the keratan sulfate tetrasaccharide (I) administered foot"), and 150 μl of PBS was injected into that of the right joint (hereinafter referred to as "the keratan sulfate tetrasaccharide (I) unadministered foot"). Hereinafter the rabbits subjected to administration of the keratan sulfate tetrasaccharide (I) are referred to as "the administered group". And the rabbits subjected to the papain injection only (hereinafter referred to as the control group) and the normal rabbits not subjected to the papain injection (hereinafter referred to as the normal group) were also examined in the same manner hereinafter.
Seven days after the injection, the blood was drawn from the auricular artery, and plasma containing heparin was separated. After drawing the blood, the rabbits were anatomized and the both knee joint were separated. The articular cavity was washed with 2 ml of saline three times to recover the synovial fluid. The calcium concentrations in the plasma and the recovered synovial fluid were determined, and the volume of synovial fluid was calculated from the following formula.
Volume of Synovial Fluid (ul/articulation)=Amount of Calcium in Recovered
Synovial Fluid (μg/articulation)/Concentration of Calcium in Plasma
In the table, "n" represents the number of rabbits in each group used in the experiment.

[5] = tested on: papain-induced arthritis; test: Papain-induced bilateral arthritis model, intramuscular administration (volume of synovial fluid); format: in vivo, Japanese white rabbits (female); conditions: 0.5 mg/kg intramuscular
Experimental: as §1
Into the articular cavity of both knee joint of Japanese white rabbits (female) of 3 kg weight, 150 μl of the saline solution of papain (1%) was injected to prepare the arthritis model. […]
Seven days after the injection, the blood was drawn from the auricular artery, and plasma containing heparin was separated. […] The calcium concentrations in the plasma and the recovered synovial fluid were determined, and the volume of synovial fluid was calculated from the following formula. […]
The arthritis model was prepared by the method described in (1-1), and one day after injecting papain, 150 μl of the PBS solution of the purified keratan sulfate tetrasaccharide (I) (1% solution; 0.5 mg/kg weight) which was prepared in Example 1 was injected into the hip muscle of the left side (hereinafter referred to as "the keratan sulfate tetrasaccharide (I) administered group"). […] Seven days after the injection, the volume of synovial fluid was calculated in the same manner as in (1-1).

[6] = 6.0 mg/ml eye drop, comparison of oligosaccharides

| Structure (SMILES) | degree of conjunctivitis: hyperemia, edema and lacrimation (FIG. 12) [1, 6] | weight increase in mesenteric lymph nodes (FIG. 15) ([2]; 2.5 mg/kg i.m.) | weight increase in mesenteric lymph nodes and submandibular lymph nodes (FIG. 15, FIG. 16) ([2]; 10 mg/kg i.m.) | existence of the apoptic body [3] | degree of conjunctivitis: edema (FIG. 12) ([1]; 6.0 mg/ml eye drop, comparison of oligosaccharides, p<0.05) | degree of conjunctivitis: edema (FIG. 13) ([1]; 6 mg/ml, 3 mg/ml, and 1.5 mg/ml eye drop, p<0.05) | degree of conjunctivitis: hyperemia, edema and lacrimation (FIG. 11) ([1]; 100 mg/ml eye drop) | degree of conjunctivitis: edema (FIG. 11) ([1]; 100 mg/ml eye drop, p<0.05) | degree of conjunctivitis: hyperemia, edema and lacrimation (FIG. 13) ([1]; 6, 3, 1.5 and 0.75 mg/ml eye drop) | Volume of Synovial Fluid ([4]; Administered Foot, 1.5 mg/joint intra-articular, SD 147) [µL] | Volume of Synovial Fluid ([4]; Unadministered Foot, 1.5 mg in other joint, SD 130) [µL] | volume of synovial fluid (result in words) ([4]; intra-articular, bilateral model) | volume of synovial fluid (result in words) ([5]; bilateral model) | Volume of Synovial Fluid ([5]; 7 days, n = 12, SD 65.8, p < 0.01, control 729, normal 437) [µL] |
| --- | --- | --- | --- | --- | --- | --- | --- | --- | --- | --- | --- | --- | --- | --- |
| CC(=O)N[C@H]1C(O)O[C@H](COS(=O)(=O)O)[C@@H](O[C@@H]2O[C@H](COS(=O)(=O)O)[C@H](O)[C@H](O)[C@H]2O)[C@@H]1O (stereo partly drawn) [keratan sulfate disaccharide (III), Gal(6S)β1-4GlcNAc(6S)] | tended to show inhibition in all the items | a suppressive effect on the weight increase in mesenteric lymph nodes was observed | that in mesenteric lymph nodes and submandibular lymph nodes were observed | the scattering of the apoptic body was observed |  |  |  |  |  |  |  |  |  |  |
| CC(=O)N[C@H]1[C@H](O[C@H]2[C@@H](O)[C@@H](COS(=O)(=O)O)O[C@@H](O[C@H]3[C@H](O)[C@@H](NC(C)=O)C(O)O[C@@H]3COS(=O)(=O)O)[C@@H]2O)O[C@H](COS(=O)(=O)O)[C@@H](O[C@@H]2O[C@H](COS(=O)(=O)O)[C@H](O)[C@H](O)[C@H]2O)[C@@H]1O (stereo partly drawn) [keratan sulfate tetrasaccharide (I), Gal(6S)β1-4GlcNAc(6S)β1-3Gal(6S)β1-4GlcNAc(6S)] | tended to show inhibition in all the items |  |  |  | shows a significant inhibitory effect on edema | showed a significant inhibitory effect on edema | tended to show inhibition in all the items | significantly inhibited edema compared with the control | tended to show inhibition in all the items | 530 | 537 | significantly less than that in the control group | significantly less than that in the control group | 561 |
